Source: ChEMBL document CHEMBL3872276, “Antiproliferative activity and SARs of caffeic acid esters with mono-substituted phenylethanols moiety” (Bioorg Med Chem Lett, 2017)

Key:
[1] = cells; settings: Homo sapiens, MCF7, 48 h
[2] = cells; settings: Homo sapiens, HeLa, 48 h
[3] = cells; settings: Homo sapiens, DU-145, 48 h
[4] = cells; settings: Homo sapiens, ECa-109, 48 h

Compound Cc1cccc(CCOC(=O)/C=C/c2ccc(O)c(O)c2)c1 has an IC50 [1] of 26.3 µM, an IC50 [2] of 5.4 µM and an IC50 [3] of 21.4 µM. The IC50 [4] was 16.7 µM.

With O=C(/C=C/c1ccc(O)c(O)c1)OCCc1ccc(O)cc1 [TYROSOL CAFFEATE] the IC50 [1] was 53.2 µM, the IC50 [2] was 45.8 µM and the IC50 [3] was 51.9 µM. It also gave an IC50 [4] of 49.4 µM.

O=C(/C=C/c1ccc(O)c(O)c1)OCCc1ccc(Cl)cc1 showed an IC50 [1] of 17.6 µM, an IC50 [2] of 22.5 µM and an IC50 [3] of 22.1 µM. The IC50 [4] was 28.4 µM.

With CCc1ccccc1CCOC(=O)/C=C/c1ccc(O)c(O)c1 the IC50 [1] was 8.7 µM, the IC50 [2] was 4.2 µM and the IC50 [3] was 4.7 µM. The IC50 [4] was 7.3 µM.

Cc1ccc(CCOC(=O)/C=C/c2ccc(O)c(O)c2)cc1 showed an IC50 [1] of 20.6 µM, an IC50 [2] of 25.8 µM and an IC50 [3] of 36.9 µM. The IC50 [4] was 20.9 µM.

O=C(/C=C/c1ccc(O)c(O)c1)OCCc1ccc(Br)cc1 showed an IC50 [1] of 28.2 µM, an IC50 [2] of 56.8 µM and an IC50 [3] of 35.4 µM. It also gave an IC50 [4] of 40.3 µM.

In the case of Cc1ccccc1CCOC(=O)/C=C/c1ccc(O)c(O)c1, the IC50 [1] is reported as 2.5 µM, the IC50 [2] is reported as 2.3 µM and the IC50 [3] is reported as 6.6 µM. For the same compound, the IC50 [4] was 8.2 µM.

CC(=O)O[C@H]1C(=O)[C@@]2(C)[C@H]([C@H](OC(=O)c3ccccc3)[C@]3(O)C[C@H](OC(=O)[C@H](O)[C@@H](NC(=O)c4ccccc4)c4ccccc4)C(C)=C1C3(C)C)[C@]1(OC(C)=O)CO[C@@H]1C[C@@H]2O [PACLITAXEL] gave an IC50 [1] of 0.63 µM, an IC50 [2] of 0.036 µM and an IC50 [3] of 0.011 µM. The IC50 [4] was 0.94 µM.

In the case of CC(C)Oc1ccccc1CCOC(=O)/C=C/c1ccc(O)c(O)c1, the IC50 [1] is reported as 5.6 µM, the IC50 [2] is reported as 3.2 µM and the IC50 [3] is reported as 9.1 µM. For the same compound, the IC50 [4] was 15.1 µM.

COc1ccc(CCOC(=O)/C=C/c2ccc(O)c(O)c2)cc1 gave an IC50 [1] of 78 µM, an IC50 [2] of 67.7 µM and an IC50 [3] of 67.5 µM. For the same compound, the IC50 [4] was 111 µM.

O=C(/C=C/c1ccc(O)c(O)c1)OCCc1ccc(F)cc1 showed an IC50 [1] of 29.9 µM, an IC50 [2] of 35.8 µM and an IC50 [3] of 12.8 µM. The IC50 [4] was 51.9 µM.

For O=C(/C=C/c1ccc(O)c(O)c1)OCCc1ccccc1 [CAFFEIC ACID PHENETHYL ESTER], the IC50 [1] was 28.8 µM, the IC50 [2] was 33 µM and the IC50 [3] was 16 µM. For the same compound, the IC50 [4] was 47.5 µM.

Work on O=C(/C=C/c1ccc(O)c(O)c1)OCCc1ccccc1O yielded an IC50 [1] of 21.8 µM, an IC50 [2] of 29.4 µM and an IC50 [3] of 24.4 µM. The IC50 [4] was 40.2 µM.

Compound COc1ccccc1CCOC(=O)/C=C/c1ccc(O)c(O)c1 has an IC50 [1] of 7.1 µM, an IC50 [2] of 1.6 µM and an IC50 [3] of 2 µM. For the same compound, the IC50 [4] was 5.9 µM.
